Source: US11628228B2, “99mTc-labeled isonitrile-containing glucose derivative and preparation method and use thereof” (Beijing Shihong Pharmaceutical Research Center, priority 2017, dated 2023)

What was measured:
[1] = Determination of the lipid-water partition coefficient (n-octanol/PBS); format: physicochemical
Description: One hundred μL of the labeled substance solution (50 μCi) diluted with normal saline is placed into a 2 mL centrifuge tube, and then 800 μL of n-octanol and 700 μL of PBS are added to the centrifuge tube, which is subsequently covered with a cap. The centrifuge tube is vortexed for 3 minutes (2500 r/minute), allowed to stand until the solution is layered, and centrifuged in a centrifuge for 3 minutes (3000 r/minute). Three samples of the upper organic phase and three samples of the lower aqueous phase are taken, each 100 μL, and detected in a γ-counter for the radioactive counts of the organic and aqueous phases, respectively.

S180-bearing mice = assay: Bio-distribution in tumor-bearing mice; format: in vivo; conditions: for Blood uptake / Bone uptake / Heart uptake / Kidney uptake / Liver uptake / Lung uptake / Muscle uptake / Small intestine uptake / Spleen uptake / Stomach uptake / Tumor uptake / Tumor/blood ratio / Tumor/muscle ratio: S180-bearing mice, tail vein; for Tumor/liver ratio: tumor-bearing mice, 0.5 hour after injection
Description: The labeled solution (0.1 mL, 74 KBq) is injected into mice through the tail vein, and the injection time is recorded. Then the mice were killed by cervical dislocation at different time phases (30 minutes, 60 minutes, and 120 minutes), five mice for each time phase, and the organs of interest such as heart, liver, lung, kidney, spleen, stomach, muscle, blood and tumor are taken out after dissection, and measured with a γ-counter for the radioactive count of each organ. The uptake value of each organ is obtained by calculation based on the mass of the organ (with % ID/g as the unit).

tumor-bearing mice [2] = assay: SPECT imaging in tumor-bearing mice; format: in vivo; conditions: 0.2 mL, 700 μCi tail vein, imaging 1 hour later
Description: The prepared [^99mTc-(CN3DG)6]^+ or [^99mTc-(CN5DG)6]^+ (0.2 mL, 700 μCi) is injected into tumor-bearing mice through tail vein, and SPECT imaging is performed 1 hour later.

tumor-bearing mice [3] = conditions: 0.5 hour after injection, literature; cited from earlier work

O=C(CC[N+]#[C][99Tc-5]([C]#[N+]CCC(=O)NC1C(O)OC(CO)C(O)C1O)([C]#[N+]CCC(=O)NC1C(O)OC(CO)C(O)C1O)([C]#[N+]CCC(=O)NC1C(O)OC(CO)C(O)C1O)([C]#[N+]CCC(=O)NC1C(O)OC(CO)C(O)C1O)[C]#[N+]CCC(=O)NC1C(O)OC(CO)C(O)C1O)NC1C(O)OC(CO)C(O)C1O (centres unmarked) [[^99mTc-(CN2DG)6]^+]
Log P (lipid-water partition coefficient) [1]: −4.26±0.12
Blood uptake (S180-bearing mice; 30 min): 0.94 ± 0.18 % ID/g
Bone uptake (S180-bearing mice; 30 min): 0.32 ± 0.07 % ID/g
Heart uptake (S180-bearing mice; 30 min): 0.34 ± 0.06 % ID/g
Kidney uptake (S180-bearing mice; 30 min): 3.11 ± 1.04 % ID/g
Liver uptake (S180-bearing mice; 30 min): 0.35 ± 0.06 % ID/g
Lung uptake (S180-bearing mice; 30 min): 0.94 ± 0.18 % ID/g
Muscle uptake (S180-bearing mice; 30 min): 0.27 ± 0.07 % ID/g
Small intestine uptake (S180-bearing mice; 30 min): 0.44 ± 0.16 % ID/g
Spleen uptake (S180-bearing mice; 30 min): 0.31 ± 0.09 % ID/g
Stomach uptake (S180-bearing mice; 30 min): 0.38 ± 0.15 % ID/g
Tumor uptake (S180-bearing mice; 30 min): 1.09 ± 0.23 % ID/g
Tumor/blood ratio (S180-bearing mice; 30 min): 1.16
Tumor/muscle ratio (S180-bearing mice; 30 min): 4.04
Blood uptake (S180-bearing mice; 60 min): 0.20 ± 0.05 % ID/g
Bone uptake (S180-bearing mice; 60 min): 0.10 ± 0.02 % ID/g
Heart uptake (S180-bearing mice; 60 min): 0.12 ± 0.02 % ID/g
Kidney uptake (S180-bearing mice; 60 min): 1.17 ± 0.27 % ID/g
Liver uptake (S180-bearing mice; 60 min): 0.18 ± 0.02 % ID/g
Lung uptake (S180-bearing mice; 60 min): 0.26 ± 0.06 % ID/g
Muscle uptake (S180-bearing mice; 60 min): 0.08 ± 0.00 % ID/g
Small intestine uptake (S180-bearing mice; 60 min): 0.19 ± 0.03 % ID/g
Spleen uptake (S180-bearing mice; 60 min): 0.13 ± 0.02 % ID/g
Stomach uptake (S180-bearing mice; 60 min): 0.19 ± 0.07 % ID/g
Tumor uptake (S180-bearing mice; 60 min): 0.50 ± 0.07 % ID/g
Tumor/blood ratio (S180-bearing mice; 60 min): 2.78
Tumor/muscle ratio (S180-bearing mice; 60 min): 6.25
Blood uptake (S180-bearing mice; 120 min): 0.01 ± 0.00 % ID/g
Bone uptake (S180-bearing mice; 120 min): 0.05 ± 0.02 % ID/g
Heart uptake (S180-bearing mice; 120 min): 0.05 ± 0.02 % ID/g
Kidney uptake (S180-bearing mice; 120 min): 0.68 ± 0.11 % ID/g
Liver uptake (S180-bearing mice; 120 min): 0.09 ± 0.01 % ID/g
Lung uptake (S180-bearing mice; 120 min): 0.09 ± 0.04 % ID/g
Muscle uptake (S180-bearing mice; 120 min): 0.04 ± 0.01 % ID/g
Small intestine uptake (S180-bearing mice; 120 min): 0.12 ± 0.02 % ID/g
Spleen uptake (S180-bearing mice; 120 min): 0.07 ± 0.01 % ID/g
Stomach uptake (S180-bearing mice; 120 min): 0.15 ± 0.06 % ID/g
Tumor uptake (S180-bearing mice; 120 min): 0.25 ± 0.05 % ID/g
Tumor/blood ratio (S180-bearing mice; 120 min): 25.00
Tumor/muscle ratio (S180-bearing mice; 120 min): 6.25
Tumor/liver ratio (S180-bearing mice): 3.11

O=C(CCC[N+]#[C][99Tc-5]([C]#[N+]CCCC(=O)NC1C(O)OC(CO)C(O)C1O)([C]#[N+]CCCC(=O)NC1C(O)OC(CO)C(O)C1O)([C]#[N+]CCCC(=O)NC1C(O)OC(CO)C(O)C1O)([C]#[N+]CCCC(=O)NC1C(O)OC(CO)C(O)C1O)[C]#[N+]CCCC(=O)NC1C(O)OC(CO)C(O)C1O)NC1C(O)OC(CO)C(O)C1O (centres unmarked) [[^99mTc-(CN3DG)6]^+]
Log P (lipid-water partition coefficient) [1]: −4.01±0.17
Blood uptake (S180-bearing mice; 30 min): 0.78 ± 0.16 % ID/g
Bone uptake (S180-bearing mice; 30 min): 0.27 ± 0.05 % ID/g
Heart uptake (S180-bearing mice; 30 min): 0.40 ± 0.07 % ID/g
Kidney uptake (S180-bearing mice; 30 min): 2.17 ± 0.43 % ID/g
Liver uptake (S180-bearing mice; 30 min): 0.39 ± 0.12 % ID/g
Lung uptake (S180-bearing mice; 30 min): 0.78 ± 0.12 % ID/g
Muscle uptake (S180-bearing mice; 30 min): 0.37 ± 0.08 % ID/g
Small intestine uptake (S180-bearing mice; 30 min): 0.44 ± 0.08 % ID/g
Spleen uptake (S180-bearing mice; 30 min): 0.28 ± 0.05 % ID/g
Stomach uptake (S180-bearing mice; 30 min): 0.64 ± 0.25 % ID/g
Tumor uptake (S180-bearing mice; 30 min): 1.49 ± 0.08 % ID/g
Tumor/blood ratio (S180-bearing mice; 30 min): 1.91
Tumor/muscle ratio (S180-bearing mice; 30 min): 4.03
Blood uptake (S180-bearing mice; 60 min): 0.12 ± 0.03 % ID/g
Bone uptake (S180-bearing mice; 60 min): 0.15 ± 0.02 % ID/g
Heart uptake (S180-bearing mice; 60 min): 0.22 ± 0.04 % ID/g
Kidney uptake (S180-bearing mice; 60 min): 1.05 ± 0.21 % ID/g
Liver uptake (S180-bearing mice; 60 min): 0.23 ± 0.03 % ID/g
Lung uptake (S180-bearing mice; 60 min): 0.23 ± 0.04 % ID/g
Muscle uptake (S180-bearing mice; 60 min): 0.17 ± 0.07 % ID/g
Small intestine uptake (S180-bearing mice; 60 min): 0.21 ± 0.14 % ID/g
Spleen uptake (S180-bearing mice; 60 min): 0.15 ± 0.03 % ID/g
Stomach uptake (S180-bearing mice; 60 min): 0.25 ± 0.07 % ID/g
Tumor uptake (S180-bearing mice; 60 min): 1.00 ± 0.17 % ID/g
Tumor/blood ratio (S180-bearing mice; 60 min): 8.33
Tumor/muscle ratio (S180-bearing mice; 60 min): 5.88
Blood uptake (S180-bearing mice; 120 min): 0.04 ± 0.02 % ID/g
Bone uptake (S180-bearing mice; 120 min): 0.13 ± 0.04 % ID/g
Heart uptake (S180-bearing mice; 120 min): 0.22 ± 0.05 % ID/g
Kidney uptake (S180-bearing mice; 120 min): 1.23 ± 0.26 % ID/g
Liver uptake (S180-bearing mice; 120 min): 0.28 ± 0.04 % ID/g
Lung uptake (S180-bearing mice; 120 min): 0.17 ± 0.05 % ID/g
Muscle uptake (S180-bearing mice; 120 min): 0.17 ± 0.05 % ID/g
Small intestine uptake (S180-bearing mice; 120 min): 0.14 ± 0.06 % ID/g
Spleen uptake (S180-bearing mice; 120 min): 0.17 ± 0.06 % ID/g
Stomach uptake (S180-bearing mice; 120 min): 0.31 ± 0.06 % ID/g
Tumor uptake (S180-bearing mice; 120 min): 0.68 ± 0.23 % ID/g
Tumor/blood ratio (S180-bearing mice; 120 min): 17.00
Tumor/muscle ratio (S180-bearing mice; 120 min): 4.00
Tumor/liver ratio (S180-bearing mice): 3.82
SPECT imaging: aggregation at the tumor sites (tumor-bearing mice [2]): evident aggregation at the tumor sites
SPECT imaging: concentration in kidney (tumor-bearing mice [2]): relatively high concentration in kidney
SPECT imaging: uptake in other organs (tumor-bearing mice [2]): relatively low

O=C(CCCC[N+]#[C][99Tc-5]([C]#[N+]CCCCC(=O)NC1C(O)OC(CO)C(O)C1O)([C]#[N+]CCCCC(=O)NC1C(O)OC(CO)C(O)C1O)([C]#[N+]CCCCC(=O)NC1C(O)OC(CO)C(O)C1O)([C]#[N+]CCCCC(=O)NC1C(O)OC(CO)C(O)C1O)[C]#[N+]CCCCC(=O)NC1C(O)OC(CO)C(O)C1O)NC1C(O)OC(CO)C(O)C1O (centres unmarked) [[^99mTc-(CN4DG)6]^+]
Log P (lipid-water partition coefficient) [1]: −3.84±0.06
Blood uptake (S180-bearing mice; 30 min): 1.80 ± 0.53 % ID/g
Bone uptake (S180-bearing mice; 30 min): 0.73 ± 0.23 % ID/g
Heart uptake (S180-bearing mice; 30 min): 0.70 ± 0.18 % ID/g
Kidney uptake (S180-bearing mice; 30 min): 4.93 ± 1.11 % ID/g
Liver uptake (S180-bearing mice; 30 min): 0.66 ± 0.13 % ID/g
Lung uptake (S180-bearing mice; 30 min): 1.75 ± 0.49 % ID/g
Muscle uptake (S180-bearing mice; 30 min): 0.57 ± 0.18 % ID/g
Small intestine uptake (S180-bearing mice; 30 min): 1.06 ± 0.33 % ID/g
Spleen uptake (S180-bearing mice; 30 min): 0.53 ± 0.12 % ID/g
Stomach uptake (S180-bearing mice; 30 min): 0.81 ± 0.33 % ID/g
Tumor uptake (S180-bearing mice; 30 min): 1.72 ± 0.30 % ID/g
Tumor/blood ratio (S180-bearing mice; 30 min): 0.95
Tumor/muscle ratio (S180-bearing mice; 30 min): 3.01
Blood uptake (S180-bearing mice; 60 min): 0.30 ± 0.13 % ID/g
Bone uptake (S180-bearing mice; 60 min): 0.19 ± 0.04 % ID/g
Heart uptake (S180-bearing mice; 60 min): 0.22 ± 0.08 % ID/g
Kidney uptake (S180-bearing mice; 60 min): 1.57 ± 0.27 % ID/g
Liver uptake (S180-bearing mice; 60 min): 0.28 ± 0.06 % ID/g
Lung uptake (S180-bearing mice; 60 min): 0.40 ± 0.11 % ID/g
Muscle uptake (S180-bearing mice; 60 min): 0.27 ± 0.17 % ID/g
Small intestine uptake (S180-bearing mice; 60 min): 0.25 ± 0.11 % ID/g
Spleen uptake (S180-bearing mice; 60 min): 0.21 ± 0.04 % ID/g
Stomach uptake (S180-bearing mice; 60 min): 0.23 ± 0.07 % ID/g
Tumor uptake (S180-bearing mice; 60 min): 0.88 ± 0.09 % ID/g
Tumor/blood ratio (S180-bearing mice; 60 min): 2.93
Tumor/muscle ratio (S180-bearing mice; 60 min): 3.26
Blood uptake (S180-bearing mice; 120 min): 0.03 ± 0.01 % ID/g
Bone uptake (S180-bearing mice; 120 min): 0.13 ± 0.09 % ID/g
Heart uptake (S180-bearing mice; 120 min): 0.10 ± 0.04 % ID/g
Kidney uptake (S180-bearing mice; 120 min): 1.24 ± 0.53 % ID/g
Liver uptake (S180-bearing mice; 120 min): 0.17 ± 0.03 % ID/g
Lung uptake (S180-bearing mice; 120 min): 0.13 ± 0.02 % ID/g
Muscle uptake (S180-bearing mice; 120 min): 0.15 ± 0.07 % ID/g
Small intestine uptake (S180-bearing mice; 120 min): 0.36 ± 0.21 % ID/g
Spleen uptake (S180-bearing mice; 120 min): 0.11 ± 0.02 % ID/g
Stomach uptake (S180-bearing mice; 120 min): 0.08 ± 0.01 % ID/g
Tumor uptake (S180-bearing mice; 120 min): 0.45 ± 0.17 % ID/g
Tumor/blood ratio (S180-bearing mice; 120 min): 15.00
Tumor/muscle ratio (S180-bearing mice; 120 min): 3.00
Tumor/liver ratio (S180-bearing mice): 2.60

O=C(NC1C(O)O[C@H](CO)[C@@H](O)[C@@H]1O)C1C[S][Tc]23(=[O])[S]C[C@@H](C(=O)NC4C(O)O[C@H](CO)[C@@H](O)[C@@H]4O)[N]2CC[N]13 (some centres unmarked) [^99mTc-ECDG]
Blood uptake (tumor-bearing mice [3]): 1.61 ± 0.39 % ID/g
Kidney uptake (tumor-bearing mice [3]): 6.73 ± 1.84 % ID/g
Liver uptake (tumor-bearing mice [3]): 5.67 ± 2.08 % ID/g
Muscle uptake (tumor-bearing mice [3]): 0.26 ± 0.07 % ID/g
Tumor uptake (tumor-bearing mice [3]): 0.79 ± 0.16 % ID/g
Tumor/blood ratio (tumor-bearing mice [3]): 0.49
Tumor/liver ratio (tumor-bearing mice [3]): 0.14
Tumor/muscle ratio (tumor-bearing mice [3]): 3.04
